Assay results as given in patent publication US20230416232A1, “PYRIMIDINE COMPOUNDS, COMPOSITIONS, AND MEDICINAL APPLICATIONS THEREOF” (Blueprint Medicines Corporation, priority 2020, published 2023).
pIC50: −log10 of the molar value.

What was measured:
Assay type in all cases: cell-based
[1] = system: A431 cells; experiment: Cellular proliferation (Alamar Blue) assay, A431 cells; details: Homo sapiens, A-431, 72 h, A431 cells; 72 hr; Alamar Blue; read-out: A431 IC50
Experimental: (§1) • 1. Seed cells at 5000 for A431 and 15,000 cells for Ba/F3 in 100 μL/well in complete media (for A431: DMEM with 10% FBS and for Ba/F3 cells: RPMI with 10% FBS) in 96-well tissue culture plate. Leave outer wells without cells for background measurements. Incubate at 37 degree Celsius in 5% CO2 humidified incubator for 16-18 hours. • 2. Add 0.025 ml of 5X concentration compound dilution or DMSO control. Final compound concentration range is 10-0.0005 μM prepared in 3-fold serial dilutions. Incubate for 72 hr at 37 degree Celsius in 5% CO2 humidified incubator. • 3. Add 0.0125 ml Alamar Blue™ reagent to each well with multi-channel pipette and tap gently on each side of the plate to mix. Incubate for 3 hours at 37 degree Celsius in 5% CO2 humidified incubator. • 4. […] Data analysis was performed using XLfit 5.5.0.5.

[2] = target: EGFR (A767_dupASV) expressing Ba/F3 stable cell line (Homo sapiens, UniProt P00533, DUP767-769, cells depend on it); experiment: Cellular proliferation (Alamar Blue) assay, EGFR (A767_dupASV) Ba/F3; details: 72 hr, read-out: A767 IC50
Experimental: (§2) Cell line details: • 1. EGFR(D770_N771insSVD) expressing Ba/F3 stable cell line • 2. EGFR (A767_dupASV) expressing Ba/F3 stable cell line • 3. A431 cells • 4. EGFR (H773insNPH) expressing Ba/F3 stable cell line • 5. HER2 (A775_G776insYVMA) expressing Ba/F3 stable cell line
as §1

[3] = target: EGFR(D770_N771insSVD) expressing Ba/F3 stable cell line (Homo sapiens, UniProt P00533, DUP768-770, cells depend on it); experiment: Cellular proliferation (Alamar Blue) assay, EGFR(D770_N771insSVD) Ba/F3; details: 72 hr, read-out: D770 IC50
Experimental: as §2, §1

[4] = target: HER2 (A775_G776insYVMA) expressing Ba/F3 stable cell line (Homo sapiens, UniProt P04626, DUP772-775, cells depend on it); experiment: Cellular proliferation (Alamar Blue) assay, HER2 (A775_G776insYVMA) Ba/F3; details: HER2 (A775_G776insYVMA) Ba/F3 cells; 72 hr; Alamar Blue; read-out: YVMA IC50
Experimental: as §2, §1

EGFR (A767_dupASV) expressing Ba/F3 stable cell line, sequence (P00533 with tags, fused parts or gaps DUP767-769): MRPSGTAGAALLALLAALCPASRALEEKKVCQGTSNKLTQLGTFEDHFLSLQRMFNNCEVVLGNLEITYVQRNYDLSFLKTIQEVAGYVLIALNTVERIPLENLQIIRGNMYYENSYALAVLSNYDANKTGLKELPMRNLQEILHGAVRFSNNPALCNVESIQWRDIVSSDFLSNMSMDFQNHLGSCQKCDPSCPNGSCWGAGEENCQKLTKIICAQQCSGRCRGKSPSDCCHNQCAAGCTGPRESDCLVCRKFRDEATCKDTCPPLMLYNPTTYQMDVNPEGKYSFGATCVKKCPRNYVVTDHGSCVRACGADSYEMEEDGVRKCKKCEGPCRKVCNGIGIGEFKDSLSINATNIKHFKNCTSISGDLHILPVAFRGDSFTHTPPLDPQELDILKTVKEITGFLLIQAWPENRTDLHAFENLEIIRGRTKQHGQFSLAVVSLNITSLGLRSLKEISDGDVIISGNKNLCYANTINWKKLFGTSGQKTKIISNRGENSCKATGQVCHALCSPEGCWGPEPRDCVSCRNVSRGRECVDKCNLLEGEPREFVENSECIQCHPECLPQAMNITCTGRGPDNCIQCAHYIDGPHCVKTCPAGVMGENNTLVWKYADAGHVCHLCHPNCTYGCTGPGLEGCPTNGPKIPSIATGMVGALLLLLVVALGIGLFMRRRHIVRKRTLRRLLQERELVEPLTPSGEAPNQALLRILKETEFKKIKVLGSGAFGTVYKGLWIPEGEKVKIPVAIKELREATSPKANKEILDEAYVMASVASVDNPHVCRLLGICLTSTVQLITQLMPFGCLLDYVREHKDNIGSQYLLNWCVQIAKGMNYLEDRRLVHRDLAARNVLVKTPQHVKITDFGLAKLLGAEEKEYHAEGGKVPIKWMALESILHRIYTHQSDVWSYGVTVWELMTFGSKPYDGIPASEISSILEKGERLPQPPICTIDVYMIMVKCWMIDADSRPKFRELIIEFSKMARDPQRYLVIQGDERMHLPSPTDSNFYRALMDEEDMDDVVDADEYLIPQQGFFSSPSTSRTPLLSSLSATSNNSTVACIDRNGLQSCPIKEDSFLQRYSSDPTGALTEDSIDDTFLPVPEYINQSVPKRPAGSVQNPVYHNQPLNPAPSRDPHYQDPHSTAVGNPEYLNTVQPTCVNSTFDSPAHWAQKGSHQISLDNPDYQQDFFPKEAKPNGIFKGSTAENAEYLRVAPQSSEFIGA
HER2 (A775_G776insYVMA) expressing Ba/F3 stable cell line, sequence (P04626 with tags, fused parts or gaps DUP772-775): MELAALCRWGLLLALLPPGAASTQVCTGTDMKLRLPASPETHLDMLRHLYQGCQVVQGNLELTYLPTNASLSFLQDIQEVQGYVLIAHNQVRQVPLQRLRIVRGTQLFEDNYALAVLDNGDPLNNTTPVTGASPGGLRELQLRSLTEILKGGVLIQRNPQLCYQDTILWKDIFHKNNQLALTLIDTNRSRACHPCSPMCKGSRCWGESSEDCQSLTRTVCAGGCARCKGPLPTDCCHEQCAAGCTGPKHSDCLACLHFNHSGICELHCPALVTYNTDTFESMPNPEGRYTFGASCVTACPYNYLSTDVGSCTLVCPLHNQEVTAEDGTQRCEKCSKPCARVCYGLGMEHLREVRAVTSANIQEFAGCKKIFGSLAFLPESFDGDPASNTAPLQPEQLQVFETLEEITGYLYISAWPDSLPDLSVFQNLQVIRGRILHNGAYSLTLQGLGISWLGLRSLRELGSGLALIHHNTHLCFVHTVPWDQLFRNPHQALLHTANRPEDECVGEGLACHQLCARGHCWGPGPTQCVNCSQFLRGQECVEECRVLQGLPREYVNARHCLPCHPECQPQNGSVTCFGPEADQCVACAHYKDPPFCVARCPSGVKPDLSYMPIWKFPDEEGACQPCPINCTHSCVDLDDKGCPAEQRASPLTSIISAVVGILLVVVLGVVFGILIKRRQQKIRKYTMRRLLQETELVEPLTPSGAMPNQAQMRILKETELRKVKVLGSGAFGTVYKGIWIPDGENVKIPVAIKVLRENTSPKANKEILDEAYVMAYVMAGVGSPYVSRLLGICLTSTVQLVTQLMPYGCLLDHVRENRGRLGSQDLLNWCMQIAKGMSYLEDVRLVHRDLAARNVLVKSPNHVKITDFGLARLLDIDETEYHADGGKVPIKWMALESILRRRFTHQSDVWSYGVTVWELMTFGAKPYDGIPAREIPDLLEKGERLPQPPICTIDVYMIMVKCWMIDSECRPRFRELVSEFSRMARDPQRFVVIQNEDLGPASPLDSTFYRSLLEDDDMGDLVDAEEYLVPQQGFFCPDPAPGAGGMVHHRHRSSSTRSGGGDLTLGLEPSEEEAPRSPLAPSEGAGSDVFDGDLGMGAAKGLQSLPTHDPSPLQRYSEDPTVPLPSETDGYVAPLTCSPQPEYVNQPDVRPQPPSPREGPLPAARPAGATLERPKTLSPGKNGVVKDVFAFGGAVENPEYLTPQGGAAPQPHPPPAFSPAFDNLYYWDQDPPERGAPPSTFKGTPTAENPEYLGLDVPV
EGFR(D770_N771insSVD) expressing Ba/F3 stable cell line, sequence (P00533 with tags, fused parts or gaps DUP768-770): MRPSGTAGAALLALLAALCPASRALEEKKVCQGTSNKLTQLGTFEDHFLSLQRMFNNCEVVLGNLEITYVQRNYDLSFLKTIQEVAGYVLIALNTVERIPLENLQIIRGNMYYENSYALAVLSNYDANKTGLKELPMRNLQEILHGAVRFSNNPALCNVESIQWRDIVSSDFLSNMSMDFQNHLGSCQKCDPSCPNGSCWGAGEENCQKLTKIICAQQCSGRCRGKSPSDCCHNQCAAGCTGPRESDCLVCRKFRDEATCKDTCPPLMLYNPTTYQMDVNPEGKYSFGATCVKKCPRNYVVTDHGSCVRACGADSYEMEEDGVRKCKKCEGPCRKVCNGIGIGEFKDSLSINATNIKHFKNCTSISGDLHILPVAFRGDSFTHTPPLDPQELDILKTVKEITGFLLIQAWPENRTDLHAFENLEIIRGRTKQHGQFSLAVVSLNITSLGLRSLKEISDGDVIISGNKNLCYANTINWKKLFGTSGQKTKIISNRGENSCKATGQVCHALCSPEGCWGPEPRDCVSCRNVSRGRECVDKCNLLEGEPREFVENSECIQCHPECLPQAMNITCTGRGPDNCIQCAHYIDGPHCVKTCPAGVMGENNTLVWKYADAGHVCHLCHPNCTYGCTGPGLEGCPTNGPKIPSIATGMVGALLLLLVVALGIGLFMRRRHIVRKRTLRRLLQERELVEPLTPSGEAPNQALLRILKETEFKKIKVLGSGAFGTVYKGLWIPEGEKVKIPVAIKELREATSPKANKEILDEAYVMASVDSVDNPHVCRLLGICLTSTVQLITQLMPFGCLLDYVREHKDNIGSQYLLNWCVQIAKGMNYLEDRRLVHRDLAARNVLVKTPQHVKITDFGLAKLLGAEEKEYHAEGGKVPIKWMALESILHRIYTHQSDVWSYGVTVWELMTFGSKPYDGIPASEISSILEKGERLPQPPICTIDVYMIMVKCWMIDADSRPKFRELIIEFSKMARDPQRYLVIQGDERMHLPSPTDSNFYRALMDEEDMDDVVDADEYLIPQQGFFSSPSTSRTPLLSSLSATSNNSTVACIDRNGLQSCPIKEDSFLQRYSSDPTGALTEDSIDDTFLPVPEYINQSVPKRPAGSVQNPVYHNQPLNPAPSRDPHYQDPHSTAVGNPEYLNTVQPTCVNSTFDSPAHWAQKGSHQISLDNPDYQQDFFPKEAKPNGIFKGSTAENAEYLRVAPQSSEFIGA

| pIC50 [1] | GI50 [2] | GI50 [3] | GI50 [4] | SMILES |
| --- | --- | --- | --- | --- |
| < 5.00 | 0.896 µM | 1.05 µM |  | C=CC(=O)Nc1ccc(F)c(Nc2nc(Nc3cnn(C)c3)ncc2-c2ccc(OC)c(OC)c2)c1 [Compound 2, N-(3-((5-(3,4-dimethoxyphenyl)-2-((1-methyl-1H-pyrazol-4-yl)amino)pyrimidin-4-yl)amino)-4-fluorophenyl)acrylamide] |
| < 5.00 | 0.293 µM | 0.295 µM | 0.262 µM | C=CC(=O)Nc1ccc(F)c(Nc2nc(Nc3cnn(C)c3)ncc2-c2ccc(F)c(OC)c2)c1 [Compound 4, N-(4-fluoro-3-((5-(4-fluoro-3-methoxyphenyl)-2-((1-methyl-1H-pyrazol-4-yl)amino)pyrimidin-4-yl)amino)phenyl)acrylamide] |
| < 5.00 | 0.749 µM | 1.59 µM | 0.644 µM | C=CC(=O)Nc1ccc(F)c(Nc2nc(Nc3cnn(C)c3)ncc2-c2cc(OC)ccc2Cl)c1 [Compound 8, N-(3-((5-(2-chloro-5-methoxyphenyl)-2-((1-methyl-1H-pyrazol-4-yl)amino)pyrimidin-4-yl)amino)-4-fluorophenyl)acrylamide] |
| < 5.00 | 0.721 µM | 0.93 µM | 0.838 µM | C=CC(=O)Nc1ccc(F)c(Nc2nc(Nc3cnn(C)c3)ncc2-c2cc(F)ccc2OC)c1 [Compound 9, N-(4-fluoro-3-((5-(5-fluoro-2-methoxyphenyl)-2-((1-methyl-1H-pyrazol-4-yl)amino)pyrimidin-4-yl)amino)phenyl)acrylamide] |
| < 5.00 | 3.23 µM | 3.94 µM |  | C=CC(=O)Nc1ccc(F)c(Nc2nc(Nc3cnn(C)c3)ncc2-c2ccc(C(F)(F)F)cc2OC)c1 [Compound 10, N-(4-fluoro-3-((5-(2-methoxy-4-(trifluoromethyl)phenyl)-2-((1-methyl-1H-pyrazol-4-yl)amino)pyrimidin-4-yl)amino)phenyl)acrylamide] |
|  | 0.919 µM | 0.363 µM |  | C=CC(=O)Nc1ccc(F)c(Nc2nc(Nc3cnn(C)c3)ncc2-c2ccc(F)cc2Cl)c1 [Compound 12, N-(3-((5-(2-chloro-4-fluorophenyl)-2-((1-methyl-1H-pyrazol-4-yl)amino)pyrimidin-4-yl)amino)-4-fluorophenyl)acrylamide] |
| < 5.00 | 0.428 µM | 0.329 µM | 0.89 µM | C=CC(=O)Nc1ccc(F)c(Nc2nc(Nc3cnn(C)c3)ncc2-c2ccc(OC)c(C(F)(F)F)c2)c1 [Compound 22, N-(4-fluoro-3-((5-(4-methoxy-3-(trifluoromethyl)phenyl)-2-((1-methyl-1H-pyrazol-4-yl)amino)pyrimidin-4-yl)amino)phenyl)acrylamide] |
| 5.54 | 2.76 µM | 2.73 µM |  | C=CC(=O)Nc1ccc(F)c(Nc2nc(Nc3cnn(C)c3)ncc2-c2cc(Cl)ccc2OC)c1 [Compound 23, N-(3-((5-(5-chloro-2-methoxyphenyl)-2-((1-methyl-1H-pyrazol-4-yl)amino)pyrimidin-4-yl)amino)-4-fluorophenyl)acrylamide] |
| 5.03 | 0.321 µM | 0.3 µM | 0.588 µM | C=CC(=O)Nc1ccc(F)c(Nc2nc(Nc3cnn(C)c3)ncc2-c2cc(C(F)(F)F)ccc2F)c1 [Compound 24, N-(4-fluoro-3-((5-(2-fluoro-5-(trifluoromethyl)phenyl)-2-((1-methyl-1H-pyrazol-4-yl)amino)pyrimidin-4-yl)amino)phenyl)acrylamide] |
| 7.70 | 0.007 µM | 0.008 µM | 0.021 µM | C=CC(=O)Nc1ccc(F)c(Nc2nc(Nc3cnn(C)c3)ncc2-c2cnc(F)c(F)c2)c1 [Compound 29, N-(3-((5-(5,6-difluoropyridin-3-yl)-2-((1-methyl-1H-pyrazol-4-yl)amino)pyrimidin-4-yl)amino)-4-fluorophenyl)acrylamide] |
| 5.35 | 0.737 µM | 0.942 µM |  | C=CC(=O)Nc1ccc(F)c(Nc2nc(Nc3cnn(C)c3)ncc2-c2cc(F)cc(N(C)C)c2)c1 [Compound 42, N-(3-((5-(3-(dimethylamino)-5-fluorophenyl)-2-((1-methyl-1H-pyrazol-4-yl)amino)pyrimidin-4-yl)amino)-4-fluorophenyl)acrylamide] |
| 7.28 | 0.015 µM | 0.024 µM | 0.036 µM | C=CC(=O)Nc1ccc(F)c(Nc2nc(Nc3cnn(C)c3)ncc2-c2cnc(Cl)c(C(F)(F)F)c2)c1 [Compound 44, N-(3-((5-(6-chloro-5-(trifluoromethyl)pyridin-3-yl)-2-((1-methyl-1H-pyrazol-4-yl)amino)pyrimidin-4-yl)amino)-4-fluorophenyl)acrylamidet] |
| 6.71 | 0.307 µM | 0.104 µM |  | C=CC(=O)Nc1ccc(F)c(Nc2nc(Nc3cn(C)nc3Cl)ncc2-c2ccc(F)c(Cl)c2)c1 [Compound 52, N-(3-((2-((3-chloro-1-methyl-1H-pyrazol-4-yl)amino)-5-(3-chloro-4-fluorophenyl)pyrimidin-4-yl)amino)-4-fluorophenyl)acrylamide] |
| 6.24 | 0.957 µM | 0.3 µM |  | C=CC(=O)Nc1ccc(F)c(Nc2nc(Nc3cnn(C)c3)ncc2-c2ccc3c(c2)CCN3C)c1 [Compound 59, N-(4-fluoro-3-((2-((1-methyl-1H-pyrazol-4-yl)amino)-5-(1-methylindolin-5-yl)pyrimidin-4-yl)amino)phenyl)acrylamide] |
| 6.98 | 0.248 µM | 0.312 µM |  | C=CC(=O)Nc1ccc(F)c(Nc2nc(Nc3cnn(C)c3)ncc2-c2ccc(N3CC(OC)C3)c(F)c2)c1 [Compound 79, N-(4-fluoro-3-((5-(3-fluoro-4-(3-methoxyazetidin-1-yl)phenyl)-2-((1-methyl-1H-pyrazol-4-yl)amino)pyrimidin-4-yl)amino)phenyl)acrylamide] |
| 5.52 | 0.343 µM | 0.906 µM |  | C=CC(=O)Nc1ccc(F)c(Nc2nc(Nc3cnn(C)c3)ncc2-c2ccc(N3CCN(C)CC3)c(F)c2)c1 [Compound 81, N-(4-fluoro-3-((5-(3-fluoro-4-(4-methylpiperazin-1-yl)phenyl)-2-((1-methyl-1H-pyrazol-4-yl)amino)pyrimidin-4-yl)amino)phenyl)acrylamide] |
| 5.97 | 0.376 µM | 1.01 µM |  | C=CC(=O)Nc1ccc(F)c(Nc2nc(Nc3cnn(C)c3)ncc2-c2ccc(N3CC(N(C)C)C3)c(F)c2)c1 [Compound 83, N-(3-((5-(4-(3-(dimethylamino)azetidin-1-yl)-3-fluorophenyl)-2-((1-methyl-1H-pyrazol-4-yl)amino)pyrimidin-4-yl)amino)-4-fluorophenyl)acrylamide] |
| 5.45 | 2.24 µM | 2.94 µM |  | C=CC(=O)Nc1ccc(F)c(Nc2nc(Nc3cnn(C)c3)ncc2-c2ccc(N(C)CCN(C)C)c(F)c2)c1 [Compound 86, N-(3-((5-(4-((2-(dimethylamino)ethyl)(methyl)amino)-3-fluorophenyl)-2-((1-methyl-1H-pyrazol-4-yl)amino)pyrimidin-4-yl)amino)-4-fluorophenyl)acrylamide] |
| 7.70 | 0.014 µM | 0.025 µM |  | [2H]C([2H])=CC(=O)Nc1ccc(F)c(Nc2nc(Nc3cnn(C)c3)ncc2-c2cnc(F)c(F)c2)c1 [Compound 103, N-(3-((5-(5,6-difluoropyridin-3-yl)-2-((1-methyl-1H-pyrazol-4-yl)amino)pyrimidin-4-yl)amino)-4-fluorophenyl)acrylamide-3,3-d2] |
|  | 0.859 µM | 1.13 µM | > 10 µM | C=CC(=O)Nc1ccc(F)c(Nc2nc(Nc3cnn(C)c3)ncc2-c2cc(F)cc(OCC(F)(F)F)c2)c1 [Compound 176, N-(4-fluoro-3-((5-(3-fluoro-5-(2,2,2-trifluoroethoxy)phenyl)-2-((1-methyl-1H-pyrazol-4-yl)amino)pyrimidin-4-yl)amino)phenyl)acrylamide] |
| 6.49 | 1.73 µM | 0.939 µM |  | C=C(F)C(=O)Nc1ccc(F)c(Nc2nc(Nc3cnn(C)c3)ncc2-c2ccc(Br)c(F)c2)c1 [Compound 177, N-(3-((5-(4-bromo-3-fluorophenyl)-2-((1-methyl-1H-pyrazol-4-yl)amino)pyrimidin-4-yl)amino)-4-fluorophenyl)-2-fluoroacrylamide] |
| 6.46 | 0.722 µM | 0.927 µM |  | CN(C)C/C=C/C(=O)Nc1ccc(F)c(Nc2nc(Nc3cnn(C)c3)ncc2-c2ccc3c(c2)OCC3)c1 [Compound 178, (E)-N-(3-((5-(2,3-dihydrobenzofuran-6-yl)-2-((1-methyl-1H-pyrazol-4-yl)amino)pyrimidin-4-yl)amino)-4-fluorophenyl)-4-(dimethylamino)but-2-enamide] |
